How the values were obtained:
[1] = target: human full-length autophosphorylated recombinant HPK1 (Homo sapiens (Human), UniProt Q92918); assay: HPK1 biochemical enzyme assay (chelation-enhanced fluorescence, CHEF); details: 0.5 nM HPK1, 45 μM ATP, Morrison fit
Outline: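 Autophosphorylated full-length human HPK1 from Sf21 cells, His-tag removed by TEV, residual N-terminal Gly-Ser. Activity measured with a C-Sox fluorescent peptide substrate (CHEF); initial velocities followed at λex 360/λem 500 nm, 30 °C for 15 min.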

[2] = target: Human recombinant full-length GST-tagged PRKD2 (PKD2) (Homo sapiens (Human), UniProt Q9BZL6); assay: Biochemical selectivity kinase assay (Z'-LYTE FRET), PRKD2; details: for IC50: 25 μM ATP (~Km); for PRKD2 IC50/HPK1 Ki: ratio of the PRKD2 IC50 to the HPK1 Ki
Human recombinant full-length GST-tagged PRKD2 (PKD2), sequence (Q9BZL6 whole entry): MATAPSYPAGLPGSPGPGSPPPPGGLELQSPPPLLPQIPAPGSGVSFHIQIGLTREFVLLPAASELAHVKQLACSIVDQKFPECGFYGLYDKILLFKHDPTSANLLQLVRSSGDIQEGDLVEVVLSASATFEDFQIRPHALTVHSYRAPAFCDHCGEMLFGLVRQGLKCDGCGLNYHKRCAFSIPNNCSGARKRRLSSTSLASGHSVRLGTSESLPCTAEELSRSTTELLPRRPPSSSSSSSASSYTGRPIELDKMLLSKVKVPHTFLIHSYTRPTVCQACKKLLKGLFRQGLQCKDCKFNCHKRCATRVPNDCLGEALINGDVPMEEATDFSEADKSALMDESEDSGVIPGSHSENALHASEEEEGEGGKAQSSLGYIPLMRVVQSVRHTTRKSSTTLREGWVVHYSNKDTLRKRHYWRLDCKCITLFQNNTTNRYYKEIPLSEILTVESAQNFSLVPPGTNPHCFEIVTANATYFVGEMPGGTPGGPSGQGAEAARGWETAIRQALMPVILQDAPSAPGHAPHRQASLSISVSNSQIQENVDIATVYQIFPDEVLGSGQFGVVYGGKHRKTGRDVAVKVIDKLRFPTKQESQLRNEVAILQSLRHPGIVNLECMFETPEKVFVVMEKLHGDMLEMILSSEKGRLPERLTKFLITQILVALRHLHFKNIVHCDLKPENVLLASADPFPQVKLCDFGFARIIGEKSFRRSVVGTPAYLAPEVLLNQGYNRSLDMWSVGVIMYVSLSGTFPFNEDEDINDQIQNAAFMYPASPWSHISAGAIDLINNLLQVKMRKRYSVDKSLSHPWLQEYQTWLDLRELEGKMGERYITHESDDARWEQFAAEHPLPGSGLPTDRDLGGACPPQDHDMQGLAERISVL
Excerpt: (§1) Biochemical Selectivity Kinase Assay.
(§2) The dose response curve was curve fit to model number 205 (sigmoidal dose-response model). A ratio of the PRKD2 IC50 to the HPK1 Ki and a ratio of the RSK3 IC50 to the HPK1 Ki, is provided in the respective columns adjacent to the columns for PRKD2 IC50 and RSK3 IC50.

[3] = system: Phospho-SLP-76 (Ser376) in Jurkat cells; assay: Phospho-SLP-76 (Ser376) HTRF assay in anti-CD3 stimulated Jurkat cells; format: cell-based; details: Homo sapiens, Jurkat, 30 min pre-treatment, anti-CD3 stimulation 15 min, read-out: pSLP76 IC50
Outline: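 Jurkat cells pre-treated 30 min with compound (11-point 3-fold series, final 10 μM to 0.1 nM, 0.1% DMSO), then stimulated 15 min at 37° C with 200 μg/mL F(ab)2-complexed anti-CD3 (UCTH1). Lysate phospho-SLP-76 read by HTRF sandwich after overnight RT incubation; IC50 from four-parameter fit.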

[4] = target: Human recombinant full-length GST-tagged RPS6KA2 (RSK3) (Homo sapiens (Human), UniProt Q15349); assay: Biochemical selectivity kinase assay (Z'-LYTE FRET), RSK3; details: for IC50: 10 μM ATP (~Km); for RSK3 IC50/HPK1 Ki: ratio of the RSK3 IC50 to the HPK1 Ki
Human recombinant full-length GST-tagged RPS6KA2 (RSK3), sequence (Q15349 whole entry): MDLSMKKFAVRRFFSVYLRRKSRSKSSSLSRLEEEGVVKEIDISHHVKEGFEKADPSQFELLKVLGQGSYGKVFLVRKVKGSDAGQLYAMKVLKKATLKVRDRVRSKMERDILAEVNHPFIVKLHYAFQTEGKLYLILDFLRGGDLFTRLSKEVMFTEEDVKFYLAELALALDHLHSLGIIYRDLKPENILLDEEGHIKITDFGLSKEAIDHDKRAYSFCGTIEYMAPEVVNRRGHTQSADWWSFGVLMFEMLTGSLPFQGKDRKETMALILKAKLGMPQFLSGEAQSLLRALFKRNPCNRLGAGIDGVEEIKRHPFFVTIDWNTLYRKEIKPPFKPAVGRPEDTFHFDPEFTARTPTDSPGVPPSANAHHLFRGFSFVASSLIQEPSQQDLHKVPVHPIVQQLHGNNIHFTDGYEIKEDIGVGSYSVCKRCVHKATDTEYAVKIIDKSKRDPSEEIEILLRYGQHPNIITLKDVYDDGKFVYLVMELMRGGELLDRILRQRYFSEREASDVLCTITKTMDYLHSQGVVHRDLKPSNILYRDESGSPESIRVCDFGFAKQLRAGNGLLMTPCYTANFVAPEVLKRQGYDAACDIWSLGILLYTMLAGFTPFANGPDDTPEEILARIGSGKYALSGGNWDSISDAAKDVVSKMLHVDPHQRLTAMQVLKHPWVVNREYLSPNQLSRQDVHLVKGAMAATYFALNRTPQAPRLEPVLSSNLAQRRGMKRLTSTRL
Excerpt: as §1, §2

human full-length autophosphorylated recombinant HPK1, sequence (Q92918 other isoform, or with tags, fused parts or gaps): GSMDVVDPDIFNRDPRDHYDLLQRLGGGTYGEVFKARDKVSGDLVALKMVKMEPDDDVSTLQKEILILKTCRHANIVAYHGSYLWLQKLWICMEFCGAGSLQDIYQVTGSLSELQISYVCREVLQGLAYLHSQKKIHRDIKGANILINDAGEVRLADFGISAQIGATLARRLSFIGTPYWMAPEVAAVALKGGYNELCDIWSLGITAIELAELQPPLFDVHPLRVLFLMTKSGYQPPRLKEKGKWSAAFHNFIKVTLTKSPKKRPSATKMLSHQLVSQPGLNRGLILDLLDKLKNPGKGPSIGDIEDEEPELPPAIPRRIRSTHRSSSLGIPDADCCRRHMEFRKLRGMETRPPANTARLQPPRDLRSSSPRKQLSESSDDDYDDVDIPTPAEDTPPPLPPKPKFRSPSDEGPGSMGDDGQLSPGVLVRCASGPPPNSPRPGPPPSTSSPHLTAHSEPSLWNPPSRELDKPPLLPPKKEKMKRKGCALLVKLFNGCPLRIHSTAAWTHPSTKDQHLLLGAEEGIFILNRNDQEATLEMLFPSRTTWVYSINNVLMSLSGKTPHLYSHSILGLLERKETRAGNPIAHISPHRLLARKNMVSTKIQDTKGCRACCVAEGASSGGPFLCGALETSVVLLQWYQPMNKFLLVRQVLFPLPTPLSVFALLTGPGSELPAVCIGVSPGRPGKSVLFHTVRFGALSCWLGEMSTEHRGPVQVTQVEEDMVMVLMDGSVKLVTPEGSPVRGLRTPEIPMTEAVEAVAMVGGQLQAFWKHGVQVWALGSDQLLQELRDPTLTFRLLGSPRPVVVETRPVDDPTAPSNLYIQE

Row | Ki [1] [nM] | IC50 [2] [nM] | PRKD2 IC50/HPK1 Ki [2] | IC50 [3] [nM] | IC50 [4] [nM] | RSK3 IC50/HPK1 Ki [4] | Compound
1 | < 0.05 | 51.2 | >1020 | 39 | 15.5 | >320 | CCn1cnnc1-c1cccc(N2Cc3c(cc(N4CCC[C@H]4C)nc3C(C)(C)N)C2=O)n1 [Example 100, 4-(2-aminopropan-2-yl)-2-[6-(4-ethyl-4H-1,2,4-triazol-3-yl)pyridin-2-yl]-6-[(2R)-2-methylpyrrolidin-1-yl]-2,3-dihydro-1H-pyrrolo[3,4-c]pyridin-1-one]
2 | 0.06 | 6.54 | 108 | 25 | 40.1 | 667 | CNCc1nc(N2CCC[C@H]2C)cc2c1CN(c1cccc(-c3nnc4n3[C@@H](CF)CC4)n1)C2=O [Example 202, 2-{6-[(5R)-5-(fluoromethyl)-6,7-dihydro-5H-pyrrolo[2,1-c][1,2,4]triazol-3-yl]pyridin-2-yl}-4-[(methylamino)methyl]-6-[(2R)-2-methylpyrrolidin-1-yl]-2,3-dihydro-1H-pyrrolo[3,4-c]pyridin-1-one]
3 | < 0.05 | 5.43 | >108 | 37 | 6.73 | >134 | CC[C@H]1CCc2nnc(-c3cccc(N4Cc5c(cc(N(C)C(C)C)nc5CNC)C4=O)n3)n21 [Example 201, 2-{6-[(5S)-5-ethyl-6,7-dihydro-5H-pyrrolo[2,1-c][1,2,4]triazol-3-yl]pyridin-2-yl}-4-[(methylamino)methyl]-6-[methyl(propan-2-yl)amino]-2,3-dihydro-1H-pyrrolo[3,4-c]pyridin-1-one]
4 | < 0.05 | 116 | >2320 | 30 | 21.3 | >420 | CC[C@H]1CCc2nnc(-c3cccc(N4Cc5c(cc(N6CCC[C@H]6C)nc5[C@@H](C)N)C4=O)n3)n21 [Example 2, 4-[(1R)-1-aminoethyl]-2-{6-[(5S)-5-ethyl-6,7-dihydro-5H-pyrrolo[2,1-c][1,2,4]triazol-3-yl]pyridin-2-yl}-6-[(2R)-2-methylpyrrolidin-1-yl]-2,3-dihydro-1H-pyrrolo[3,4-c]pyridin-1-one]
5 | < 0.05 | 6.54 | >130 | 34 | 3.33 | >66 | CC[C@H]1CCc2nnc(-c3cccc(N4Cc5c(cc(N6CCC[C@H]6C)nc5[C@H](C)N)C4=O)n3)n21 [Example 3, 4-[(1S)-1-aminoethyl]-2-{6-[(5S)-5-ethyl-6,7-dihydro-5H-pyrrolo[2,1-c][1,2,4]triazol-3-yl]pyridin-2-yl}-6-[(2R)-2-methylpyrrolidin-1-yl]-2,3-dihydro-1H-pyrrolo[3,4-c]pyridin-1-one]
6 | < 0.05 | 217 | >4304 | 36 | 25.8 | >520 | CC[C@H]1CCc2nnc(-c3cccc(N4Cc5c(cc(N(C)C(C)C)nc5[C@@H](C)N)C4=O)n3)n21 [Example 4, 4-[(1R)-1-aminoethyl]-2-{6-[(5S)-5-ethyl-6,7-dihydro-5H-pyrrolo[2,1-c][1,2,4]triazol-3-yl]pyridin-2-yl}-6-[methyl(propan-2-yl)amino]-2,3-dihydro-1H-pyrrolo[3,4-c]pyridin-1-one]
7 | < 0.05 | 7.97 | >160 | 16 | 10.1 | >200 | CC[C@H]1CCc2nnc(-c3cccc(N4Cc5c(cc(N6CCC[C@H]6C)nc5CNC)C4=O)n3)n21 [Example 200, 2-{6-[(5S)-5-ethyl-6,7-dihydro-5H-pyrrolo[2,1-c][1,2,4]triazol-3-yl]pyridin-2-yl}-4-[(methylamino)methyl]-6-[(2R)-2-methylpyrrolidin-1-yl]-2,3-dihydro-1H-pyrrolo[3,4-c]pyridin-1-one]

Reference: patent US11684616B2, “Azalactam compounds as HPK1 inhibitors” (PFIZER INC., priority 2020, dated 2023)
